Laboratory results as given in patent publication US20230227499A1, “PRODRUGS OF MITOCHONDRIA-TARGETING OLIGOPEPTIDES” (Stealth Biotherapeutics Inc., priority 2020, published 2023).
Entries after “also recorded” stand apart in the source; their conditions may differ.

How the values were obtained:
[1] = tested on: isolated perfused guinea pig heart; test: Ischemia-reperfusion-induced myocardial stunning in isolated perfused guinea pig heart (Langendorff); conditions: for myocardial contractile force during ischemia-reperfusion / tolerance of ischemia versus buffer-treated hearts: SS-02 100 nM or SS-31 1 nM perfused 30 min; for myocardial contractile force during ischemia-reperfusion: 30-min global ischemia, then reperfusion (FIG. 2)
Experimental: Guinea pig hearts were rapidly isolated, and the aorta was cannulated in situ and perfused in a retrograde fashion with an oxygenated Krebs-Henseleit solution (pH 7.4) at 34° C. The heart was then excised, mounted on a modified Langendorff perfusion apparatus, and perfused at constant pressure (40 cm H20). Contractile force was measured with a small hook inserted into the apex of the left ventricle and the silk ligature tightly connected to a force-displacement transducer. Coronary flow was measured by timed collection of pulmonary artery effluent.
Hearts were perfused with buffer, 2′,6′-Dmt-D-Arg-PheLys-NH2 (SS-02) (100 nM) or D-Arg-Dmt-Lys-Phe-NH2 (SS-31) (1 nM) for 30 min and then subjected to 30 min of global ischemia Reperfusion was carried out with the same solution used prior to ischemia.

[2] = tested on: isolated mitochondria; test: Mitochondrial permeability transition (MPT) induced by Ca2+ in isolated mitochondria; conditions: pretreatment of isolated mitochondria with SS-31 10 μM (FIG. 1A)
Experimental: (§1) FIGS. 1A-1C depict that D-Arg-Dmt-Lys-Phe-NH2 (SS-31; MTP-131) inhibits mitochondrial swelling and cytochrome c release. […] Gray line, buffer; red line, SS-31. […] Swelling was measured by light scattering measured at 570 nm. FIG. 1 C depicts the comparison of SS-02 and SS-31 with cyclosporine (CsA) in inhibiting mitochondrial swelling and cytochrome c release induced by Ca2+. The amount of cytochrome c released was expressed as percent of total cytochrome c in mitochondria. Data are presented as mean±s.e., n=3.
(§2) MPT pore opening results in mitochondrial swelling. We examined the effects of (SS-31) on mitochondrial swelling, which was measured using light scattering monitored at 570 nm.

[3] = tested on: mitochondria; test: Mitochondrial swelling induced by Ca2+, light scattering at 570 nm; conditions: pretreatment with SS-31 50 μM, light scattering at 570 nm (FIG. 1B)
Experimental: as §1, §2

[4] = tested on: mitochondria; test: Cytochrome c release from mitochondria induced by Ca2+; conditions: FIG. 1C
Experimental: as §1, §2

[5] = 30 min global ischemia, then reperfusion

Compound	myocardial contractile force during ischemia-reperfusion [1]	tolerance of ischemia versus buffer-treated hearts [1, 5]	inhibition of cardiac stunning ([1]; SS-31 1 nM, 30 min global ischemia, then reperfusion)	heart rate ([1]; SS-31 1 nM, ischemia-reperfusion)	coronary flow during reperfusion ([1]; SS-31 1 nM, timed collection of pulmonary artery effluent)	onset of MPT induced by Ca2+ [2]	mitochondrial swelling induced by Ca2+ [3]	cytochrome c release induced by Ca2+ [4]
Cc1cc(O)cc(C)c1C[C@H](CC(=O)[C@H](N)CCCNC(=N)N)C(=O)N[C@@H](CCCCN)C(=O)N[C@@H](Cc1ccccc1)C(N)=O [SS-31, D-Arg-Dmt-Lys-Phe-NH2]	protects myocardial contractile force	tolerated ischemia much better than buffer-treated hearts	complete inhibition of cardiac stunning	no decrease in heart rate	well-sustained throughout reperfusion	has the same ability to protect against MPT; also recorded: prevents onset of MPT	has the same ability to protect against; also recorded: inhibited mitochondrial swelling	has the same ability to protect against
2′,6′-Dmt-D-Arg-PheLys-NH2 [SS-02]	protects myocardial contractile force	tolerated ischemia much better than buffer-treated hearts	–	–	–	–	–	–
